Entries after “also recorded” stand apart in the source; their conditions may differ. Where two headings read alike, the source gives them in different places.
How the values were obtained:
[1] = target: T1, human Eg5 (Homo sapiens, UniProt P52732); assay: In vitro NADH enzyme coupled ATPase assay with purified recombinant human Eg5 (Eg5-405); assay type: biochemical
T1 construct: human Eg5 (N-terminal 405 amino acids and 6-His tagged at C terminus); made in house; host or cells: E. coli BL21 pLysS (DE3), plasmid pRSETa
T1 sequence (P52732 1-405 limits assumed): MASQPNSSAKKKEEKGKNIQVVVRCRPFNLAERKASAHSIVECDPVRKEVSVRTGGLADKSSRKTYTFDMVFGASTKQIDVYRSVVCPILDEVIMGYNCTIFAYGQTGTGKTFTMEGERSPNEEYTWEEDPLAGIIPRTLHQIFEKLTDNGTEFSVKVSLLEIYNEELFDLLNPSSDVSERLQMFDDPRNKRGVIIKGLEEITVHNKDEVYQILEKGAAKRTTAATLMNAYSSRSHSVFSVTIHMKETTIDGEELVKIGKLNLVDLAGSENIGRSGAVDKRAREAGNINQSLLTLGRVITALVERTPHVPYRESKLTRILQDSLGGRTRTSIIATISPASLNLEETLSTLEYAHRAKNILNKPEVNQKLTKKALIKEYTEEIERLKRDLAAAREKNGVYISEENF
Text: FIG. 7 depicts a description of the NADH enzyme coupled ATPase assay used to study the inhibition of the ability of purified human recombinant Eg5 to hydrolyze ATP in the presence and absence of 22C16 and monastrol.
(§1) In vitro NADH Enzyme Coupled A TPase: (variation on Methods Described in Crevel, Lockhart, and Cross. J. Mol. Biol. (1997) 273, 160-170.)
For a brief description as the ATPase assay used in the present example, see FIG. 7.
(§2) A solution containing the microtubule resuspension buffer was supplemented with 1 mM Mg-ATP, 100 uM nicotinamide adenine dinucleotide (NADH), 1 mM phosphoenol pyruvate, 5 ug/ml pyruvate kinase, 7.5 ug/ml lactate dehydrogenase, 0.7 uM resuspended microtubules, and 0.5% dimethylsulfoxide (DMSO).
Next, serial dilutions of the compound 22C16 were prepared in the supplemented microtubule resuspension buffer. Purified recombinant human Eg5 protein was added resulting in a final concentration of 50 uM. The subsequent fluorescent reaction was measured in NUNC black walled 384 well plates at 340 nm using a Wallac plate reader.

[2] = system: BS-C-1 cells; assay: Cell assay for formation of mono-astral spindle structures (immunofluorescence, DAPI / anti-alpha-tubulin); assay type: cell-based, monkey; settings: for IC50: Primates, BSC-1, BS-C-1 cells, direct comparison, unpublished observations of Mayer and Mitchison, read-out: IC50 (median inhibitory concentration), formation of mono-astral structures
Protocol: When the effects of 22C16 and monastrol on microtubule structure were directly compared, it was shown by examining formation of mono-astral structures that 22C16 has an IC50 (median inhibitory concentration) of approximately 2 uM as compared to the IC50 of approximately 20 uM for monastrol (Mayer and Mitchison, unpublished observations). For experimental details on the cell assay to determine mono-astral structures, see Mayer et al. Science 286:971-974, 1999. Images of live BS-C-1 cells were taken as described (Cramer et al. Curr. Opin. Cell. Biol. 67:82, 1994). Briefly, for immunofluorescence, BS-C-1 cells were stained with DAPI (4′,6-diamidino-2-phenylindole; Sigma-Aldrich) to visualize DNA and anti-α-tubulin (DM1 A; Sigma-Aldrich, St. Louis) to visualize spindle structure.

[3] = target: T2, conventional human kinesin (Homo sapiens, UniProt P33176); assay: NADH enzyme coupled ATPase assay with conventional human kinesin (K560); assay type: biochemical; settings: N-terminal 560 amino acids, 6-His tag
T2 construct: human kinesin (N-terminal 560 amino acids of full length protein followed by 6-His tag at C terminus); made in house; host or cells: E. coli BL21 pLysS (DE3) (the purification section covers Eg5-405 and K560)
T2 sequence (P33176 1-560): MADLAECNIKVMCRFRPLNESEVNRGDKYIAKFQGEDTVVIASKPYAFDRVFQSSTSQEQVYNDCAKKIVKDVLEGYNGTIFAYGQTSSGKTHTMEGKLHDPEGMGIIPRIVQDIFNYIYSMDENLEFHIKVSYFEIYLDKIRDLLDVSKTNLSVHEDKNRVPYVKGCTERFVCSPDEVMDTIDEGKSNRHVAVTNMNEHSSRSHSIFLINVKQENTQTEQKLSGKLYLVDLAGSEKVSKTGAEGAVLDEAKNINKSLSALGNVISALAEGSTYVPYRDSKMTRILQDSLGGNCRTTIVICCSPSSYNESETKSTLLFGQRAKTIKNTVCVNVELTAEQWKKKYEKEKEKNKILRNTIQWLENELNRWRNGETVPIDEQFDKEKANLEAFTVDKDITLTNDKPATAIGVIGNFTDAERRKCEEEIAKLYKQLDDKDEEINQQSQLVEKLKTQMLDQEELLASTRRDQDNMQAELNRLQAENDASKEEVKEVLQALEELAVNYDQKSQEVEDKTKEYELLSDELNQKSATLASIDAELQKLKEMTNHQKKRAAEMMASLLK
Protocol: Since the effect of 22C16 on mono-astral formation in mammalian cells was similar to that of cells treated with monastrol, the ability of 22C16 to inhibit kinesins was examined.
Purification of Eg5-405 and K560 (560 Amino Acid Kinesin Construct):
as §1, §2

[4] = target: T3, full length Xenopus Eg5 (Xenopus laevis, UniProt P28025); assay: Microtubule motility driven by full length Xenopus Eg5, with washout; assay type: biochemical; settings: full length Xenopus Eg5, washout experiment
T3 construct: Full length Xenopus Eg5 was expressed in baculovirus according to standard protocols; made in house
T3 sequence (P28025 1-1067): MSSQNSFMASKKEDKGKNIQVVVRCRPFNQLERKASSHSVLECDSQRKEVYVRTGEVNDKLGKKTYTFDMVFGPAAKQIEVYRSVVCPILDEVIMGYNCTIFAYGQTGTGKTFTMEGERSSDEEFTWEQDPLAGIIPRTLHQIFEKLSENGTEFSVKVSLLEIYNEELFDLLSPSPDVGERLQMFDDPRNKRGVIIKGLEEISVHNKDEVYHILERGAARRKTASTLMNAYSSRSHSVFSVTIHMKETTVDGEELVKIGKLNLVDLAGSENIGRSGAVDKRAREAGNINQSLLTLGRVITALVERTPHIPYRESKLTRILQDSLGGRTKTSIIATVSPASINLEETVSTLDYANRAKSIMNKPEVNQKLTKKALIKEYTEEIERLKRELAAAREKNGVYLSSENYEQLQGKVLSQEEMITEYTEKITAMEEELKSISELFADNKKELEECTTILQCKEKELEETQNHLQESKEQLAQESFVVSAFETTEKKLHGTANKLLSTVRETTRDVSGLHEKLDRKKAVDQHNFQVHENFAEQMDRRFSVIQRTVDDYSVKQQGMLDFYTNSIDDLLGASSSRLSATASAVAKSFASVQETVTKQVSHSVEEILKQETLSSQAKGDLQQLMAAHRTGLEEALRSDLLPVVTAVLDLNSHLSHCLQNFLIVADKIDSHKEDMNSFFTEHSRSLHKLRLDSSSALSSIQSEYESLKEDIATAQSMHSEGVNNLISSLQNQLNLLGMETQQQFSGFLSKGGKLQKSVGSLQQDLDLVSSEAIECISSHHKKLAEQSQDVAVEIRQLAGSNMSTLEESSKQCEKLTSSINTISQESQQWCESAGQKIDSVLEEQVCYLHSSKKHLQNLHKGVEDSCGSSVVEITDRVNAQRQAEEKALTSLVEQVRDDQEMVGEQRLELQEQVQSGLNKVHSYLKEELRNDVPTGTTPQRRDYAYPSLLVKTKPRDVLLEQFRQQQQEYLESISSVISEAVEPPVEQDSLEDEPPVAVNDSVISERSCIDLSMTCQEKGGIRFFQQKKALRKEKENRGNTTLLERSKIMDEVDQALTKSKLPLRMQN
Protocol: FIG. 2 depicts the results of experiments examining the motility activity of full length Xenopus Eg5 with and without the beta-carboline, 22C16.
In addition, the ability of 22C16 to inhibit microtubule motility driven by Eg5 was examined. For experimental protocols and details, see Mayer et al. Science 286:971-974, 1999. […] For the washout, Eg5-driven microtubule motility in the presence of 22C16 was measured. The assay chamber was then depleted of 22C16 and motility was immediately measured again. Therefore, the results of the experiment depicted in FIG. 2 provide direct evidence that 22C16 inhibits the microtubule motility driven by Eg5.

[5] = system: BSC1 cells; assay type: cell-based, monkey

| Compound | IC50 ([1]; purified recombinant human Eg5, microtubules, 1 mM Mg-ATP, read-out: IC50, inhibition of Eg5 ATPase activity) [µM] | IC50 [2] [µM] | IC50 lower than monastrol (fold), ATPase assay of Example 2 ([1]; optically purified trans stereoisomer versus monastrol) | IC50 [1] [µM] | inhibition of ATPase activity of human Eg5 (in words) ([1]; Eg5 N-terminal 405 amino acids, 6-His tagged) | potency relative to monastrol in inhibition of ATPase activity of human kinesin Eg5 ([1]; ratio of IC50 values) | inhibition of ATPase activity of conventional human kinesin (in words) [3] | spindle phenotype in mitotic cells (in words) ([2]; mitotic mammalian (BSC1) cells) | inhibition of microtubule motility driven by Eg5 (in words) [4] | effect on Golgi (in words) [5] | effect on interphase microtubules (in words) [5] |
| --- | --- | --- | --- | --- | --- | --- | --- | --- | --- | --- | --- |
| CCOC(=O)C1=C(C)NC(=S)NC1c1cccc(O)c1 (stereo not drawn) [monastrol, reference compound] | 5.3 | ~20 |  |  |  |  |  |  |  |  |  |
| CCCCN1C(=O)C2Cc3c([nH]c4ccccc34)C(c3cccc(O)c3)N2C1=O (stereo not drawn) [trans isomer of monastroline] |  |  | approximately 8 times |  |  |  |  |  |  |  |  |
| CCCCN1C(=O)C2Cc3c([nH]c4ccccc34)C(c3cccc(O)c3)N2C1=O (stereo not drawn) [22C16] |  | ~2 |  | 1.1 | block the ATPase activity; also recorded: capable of inhibiting the ATPase activity; also recorded: inhibits the ability of Eg5 | approximately 5 times | but not conventional human kinesin | caused the formation of monopolar spindles; also recorded: formation of mono-astral spindles; also recorded: capable of arresting cells in mitosis; also recorded: form a mono-astral microtubule array surrounded by a ring of chromosomes | acts reversibly to inhibit the motility of Eg5; also recorded: reversibly inhibits microtubule motility | fragmented the Golgi; also recorded: fragmentation of the Golgi | did not depolymerize interphase microtubules; also recorded: without affecting interphase microtubules |

Source: patent publication US6890933B1, “Kinesin inhibitors” (President and Fellows of Harvard College, priority 2000, dated 2005)
